Structures can show the parent of a compound that is named as a salt.
Experiments:
GST-VEGFR2 = target: T1, GST-VEGFR2 (Homo sapiens, UniProt P35968); assay: VEGF-R2 enzyme assay (VEGF-E), LANCE method; assay type: biochemical; details: GST-VEGFR2, 75 uM ATP, biotinylated peptide
T1 construct: baculovirus expressed recombinant constructs of the intracellular domains of human TIE2 tagged by GST; made in house
From the text: VEGF-R2 Enzyme Assay (VEGF-E)
The VEGF enzyme assay used the LANCE method (Wallac) and GST-VEGFR2, baculovirus expressed recombinant constructs of the intracellular domains of human TIE2 tagged by GST. The method measured the ability of the purified enzymes to catalyse the transfer of the γ-phosphate from ATP onto tyrosine residues in a biotinylated synthetic peptide, (biotin-aminohexyl-EEEEYFELVAKKKK-NH2). This peptide phosphorylation was detected using the following procedure: GST-VEGFR2 was incubated for 40-60 mins at room temperature with 75 uM ATP, 5 mM MgCl2, 0.1 mM DTT, 0.1 mg/mL BSA and the test compound (diluted from a 10 mM stock in DMSO for desired concentration) in 100 mM HEPES buffer. The reaction was stopped by the addition of EDTA (final concentration 50 mM). Streptavidin linked-APC (allophycocyanin, Molecular Probe) and Europium-labeled anti-phosphorylated tyrosine antibody (Wallac) were then added at the final concentration of 15 nM and 1 nM, respectively. The APC signal was measured using an ARVO multilabel counter (Wallac Berthold, Japan). The percent inhibition of activity was calculated relative to blank control wells. The concentration of test compound that inhibits 50% of activity (IC50) was interpolated using nonlinear regression (Levernberg-Marquardt) and the equation, y=Vmax (1−x/(K+x))+Y2, where “K” was equal to the IC50. The IC50 values were converted to pIC50 values, i.e., −log IC50 in Molar concentration.

Recombinant GST-Tie2 = Recombinant GST-Tie2 (Homo sapiens, UniProt Q02763); assay: Tie2 fluorescence polarization kinase activity assay (TIE2-FP); assay type: biochemical; details: activated Tie2, 200 μM ATP, peptide substrate
Sequence of Recombinant GST-Tie2 (Q02763 23-1124): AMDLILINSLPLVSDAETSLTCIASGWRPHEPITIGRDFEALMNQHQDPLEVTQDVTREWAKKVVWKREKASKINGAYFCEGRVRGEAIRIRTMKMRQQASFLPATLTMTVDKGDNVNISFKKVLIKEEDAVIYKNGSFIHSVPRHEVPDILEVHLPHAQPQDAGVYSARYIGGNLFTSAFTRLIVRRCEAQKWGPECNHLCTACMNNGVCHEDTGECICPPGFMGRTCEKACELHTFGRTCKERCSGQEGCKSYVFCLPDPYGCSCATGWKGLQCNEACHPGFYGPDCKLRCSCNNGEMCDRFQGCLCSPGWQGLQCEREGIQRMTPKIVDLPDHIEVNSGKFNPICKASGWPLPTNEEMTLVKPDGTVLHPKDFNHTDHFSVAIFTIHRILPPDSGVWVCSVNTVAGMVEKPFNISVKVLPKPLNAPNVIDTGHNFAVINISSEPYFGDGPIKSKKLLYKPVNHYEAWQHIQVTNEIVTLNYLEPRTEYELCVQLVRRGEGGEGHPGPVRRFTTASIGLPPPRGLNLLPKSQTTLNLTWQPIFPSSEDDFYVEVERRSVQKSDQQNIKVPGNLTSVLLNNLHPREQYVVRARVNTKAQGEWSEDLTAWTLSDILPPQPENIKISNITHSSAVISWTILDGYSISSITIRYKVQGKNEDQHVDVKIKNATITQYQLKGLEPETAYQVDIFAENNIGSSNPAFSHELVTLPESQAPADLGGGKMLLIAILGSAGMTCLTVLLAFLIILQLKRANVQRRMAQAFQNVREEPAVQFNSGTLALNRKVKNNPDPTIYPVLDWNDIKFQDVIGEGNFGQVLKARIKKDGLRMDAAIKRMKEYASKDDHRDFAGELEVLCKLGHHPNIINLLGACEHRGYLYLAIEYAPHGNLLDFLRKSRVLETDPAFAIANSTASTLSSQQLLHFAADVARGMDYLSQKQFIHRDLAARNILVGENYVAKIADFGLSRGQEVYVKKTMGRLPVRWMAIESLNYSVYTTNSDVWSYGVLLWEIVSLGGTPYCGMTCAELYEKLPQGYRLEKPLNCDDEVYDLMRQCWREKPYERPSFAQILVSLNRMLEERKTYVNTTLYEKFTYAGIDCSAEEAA
Experimental: Tie2 Fluorescence Polarization Kinase Activity Assay: (TIE2-FP)
Activation of Recombinant Tie2 Activation:
Recombinant GST-Tie2 was activated by incubating the enzyme in 20 mM Tris-HCl, pH 7.5, 12 mM MgCl2, 100 mM NaCl, 20 μM sodium vanidate, 1 mM DTT and 300 μM ATP at room temperature for 2 hours. The activation mixture was then passed through a NAP-25 desalting column (Pharmacia Biotech cat. no. 17-0852-02) to remove the free ATP. The activated enzyme was stored as aliquots at −80° C. in 20 mM Tris-HCl, pH 7.5 and 100 mM NaCl.
The final assay conditions were 50 mM HEPES, pH 7.5, 5% DMSO (when screening compounds), 200 μM ATP, 5 mM MgCl2, 1 mM DTT, 50 μM sodium vanidate, 1 nM activated enzyme, and 200 μM peptide. IC50's of compounds were measured under subsaturating ATP (200 μM) and varing concentrations of activated Tie2 and peptide substrate (RFWKYEFWR-OH; MW 1873 Da, TFA salt). Panvera Anti-phosphotyrosine antibody (Cat#P2840) and PTK Green Tracer (Cat#P2842) were used to detect the phosphorylated peptide. Polarization was measured on a TECAN Polarion in 138-second cycles for 30 minutes at room temperature. IC50's were then determined from the % polarization using normal calculation methods.

T1 sequence (P35968 786-1356 limits assumed): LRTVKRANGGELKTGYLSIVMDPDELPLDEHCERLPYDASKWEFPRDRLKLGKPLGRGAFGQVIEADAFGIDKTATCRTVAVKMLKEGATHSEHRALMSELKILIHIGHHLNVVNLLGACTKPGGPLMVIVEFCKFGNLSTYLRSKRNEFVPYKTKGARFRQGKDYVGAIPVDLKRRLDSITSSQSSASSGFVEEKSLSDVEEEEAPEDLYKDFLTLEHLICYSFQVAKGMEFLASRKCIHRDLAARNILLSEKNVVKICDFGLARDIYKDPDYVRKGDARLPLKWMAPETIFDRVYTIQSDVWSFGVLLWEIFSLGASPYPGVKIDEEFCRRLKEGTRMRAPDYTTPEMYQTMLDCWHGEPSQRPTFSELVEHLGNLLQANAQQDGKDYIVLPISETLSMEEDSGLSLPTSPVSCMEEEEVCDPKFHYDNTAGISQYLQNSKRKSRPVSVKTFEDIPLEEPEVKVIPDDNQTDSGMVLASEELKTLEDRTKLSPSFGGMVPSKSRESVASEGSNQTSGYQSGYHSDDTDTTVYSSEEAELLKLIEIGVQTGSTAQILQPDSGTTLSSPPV

Molecule: CN(c1ccc2c(c1)nc(NC(=O)Cc1cccc(F)c1F)n2C)c1ccnc(Nc2ccc(CS(C)(=O)=O)cc2)n1 [Example 226, (2,3-Difluorophenyl)-N-({[2-(4-methanesulfonylmethyl-phenylamino)-pyrimidin-4-yl]-methyl-amino}-methyl-1H-benzoimidazol-2-yl)-acetamide]
- IC50 (GST-VEGFR2): < 100 nM
- IC50 (Recombinant GST-Tie2): 1000 to 10000 nM

Molecule: Cn1c(Nc2cc(C(C)(C)C)on2)nc2cc(Nc3ccnc(Nc4cccc(CS(C)(=O)=O)c4)n3)ccc21 [Example 136, N^2-(5-tert-Butyl-isoxazol-3-yl)-N^5-[2-(3-methanesulfonylmethyl-phenylamino)-pyrimidin-4-yl]-1-methyl-1H-benzoimidazole-2,5-diamine]
- IC50 (GST-VEGFR2): < 100 nM
- IC50 (Recombinant GST-Tie2): 1000 to 10000 nM

Molecule: CN(c1ccc2c(c1)nc(Nc1ccc(Cl)cc1)n2C)c1ccnc(Nc2ccc(CS(C)(=O)=O)cc2)n1 [Example 112]
- IC50 (GST-VEGFR2): < 100 nM
- IC50 (Recombinant GST-Tie2): < 100 nM

Molecule: Cc1cc(CC(=O)Nc2nc3cc(N(C)c4ccnc(Nc5ccc(CS(C)(=O)=O)cc5)n4)ccc3n2C)on1 [Example 173, N-({[2-(4-Methanesulfonylmethyl-phenylamino)-pyrimidin-4-yl]-methyl-amino}-methyl-1H-benzoimidazol-2-yl)-2-(3-methyl-isoxazol-5-yl)-acetamide]
- VEGF-E (GST-VEGFR2): +++ (+++ = pIC50 of >7.0)
- TIE2-FP (Recombinant GST-Tie2): + (+ = pIC50 of 5.0-6.0)

Molecule: CN(c1ccc2c(c1)nc(Nc1cc(C(F)(F)F)ccc1F)n2C)c1ccnc(Nc2ccc(CS(C)(=O)=O)cc2)n1 [Example 125]
- IC50 (GST-VEGFR2): < 100 nM
- IC50 (Recombinant GST-Tie2): < 100 nM

Molecule: CN(c1ccc2c(c1)nc(NC(=O)C1(c3cc(F)ccc3F)CC1)n2C)c1ccnc(Nc2ccc(CS(C)(=O)=O)cc2)n1 [Example 204, 1-(2,5-Difluoro-phenyl)-cyclopropanecarboxylic acid ({[2-(4-methanesulfonylmethyl-phenylamino)-pyrimidin-4-yl]-methyl-amino}-methyl-1H-benzoimidazol-2-yl)-amide]
- IC50 (GST-VEGFR2): 100 to 1000 nM
- IC50 (Recombinant GST-Tie2): 1000 to 10000 nM

Molecule: CN(c1ccc2c(c1)nc(NC(=O)Cc1ccccc1Cl)n2C)c1ccnc(Nc2ccc(CS(C)(=O)=O)cc2)n1 [Example 230, 2-(2-Chlorophenyl)-N-({[2-(4-methanesulfonylmethyl-phenylamino)-pyrimidin-4-yl]-methyl-amino}-methyl-1H-benzoimidazol-2-yl)-acetamide]
- IC50 (GST-VEGFR2): < 100 nM
- IC50 (Recombinant GST-Tie2): 1000 to 10000 nM

Molecule: CNS(=O)(=O)CCc1ccc(Nc2nccc(N(C)c3ccc4c(c3)nc(NC(C)C)n4C)n2)cc1 [Example 90, 2-(4-{4-[(2-Isopropylamino-1-methyl-1H-benzoimidazol-5-yl)-methyl-amino]-pyrimidin-2-ylamino}-phenyl)-ethanesulfonic acid methylamide hydrochloride]
- IC50 (GST-VEGFR2): < 100 nM

Molecule: CN(c1ccc2c(c1)nc(NC(=O)Cc1ccccc1)n2C)c1ccnc(Nc2ccc(CS(C)(=O)=O)cc2)n1 [Example 202, Phenyl-N-({[2-(4-methanesulfonylmethyl-phenylamino)-pyrimidin-4-yl]-methyl-amino}-methyl-1H-benzoimidazol-2-yl)-acetamide]
- IC50 (GST-VEGFR2): < 100 nM

Molecule: N-({[2-(3-methanesulfonylmethyl-phenylamino)-pyrimidin-4-yl]-methyl-amino}-methyl-1H-benzoimidazol-2-yl)-3,5-bis-trifluoromethyl-benzamide [Example 156]
- VEGF-E (GST-VEGFR2): ++ (++ = pIC50 of 6.0-7.0)

Molecule: CC(C)Nc1nc2cc(N(C)c3ccnc(Nc4cccc(OS(C)(=O)=O)c4)n3)ccc2n1C [Example 92, hydrochloride]
- IC50 (GST-VEGFR2): 100 to 1000 nM
- IC50 (Recombinant GST-Tie2): 1000 to 10000 nM

Molecule: COc1cccc(CC(=O)Nc2nc3cc(N(C)c4ccnc(Nc5ccc(CS(C)(=O)=O)cc5)n4)ccc3n2C)c1OC [Example 219, 2-(2,3-Dimethoxyphenyl)-N-(5-{[2-(4-methanesulfonylmethyl-phenylamino)-pyrimidin-4-yl]-methyl-amino}-1-methyl-1H-benzoimidazol-2-yl)-acetamide]
- IC50 (GST-VEGFR2): < 100 nM

Molecule: N-({[2-(4-Methanesulfonylmethyl-phenylamino)-pyrimidin-4-yl]-methyl-amino}-methyl-1H-benzoimidazol-2-yl)-dimethyl-butyramide [Example 177]
- VEGF-E (GST-VEGFR2): +++ (+++ = pIC50 of >7.0)
- TIE2-FP (Recombinant GST-Tie2): + (+ = pIC50 of 5.0-6.0)

Molecule: Cc1ccc(Nc2nccc(N(C)c3ccc4c(c3)nc(NCCc3ccccc3)n4C)n2)cc1S(N)(=O)=O [Example 95, 2-Methyl-5-{4-[methyl-(1-methyl-2-phenethylamino-1H-benzoimidazol-5-yl)-amino]-pyrimidin-2-ylamino}-benzenesulfonamide hydrochloride]
- IC50 (GST-VEGFR2): < 100 nM
- IC50 (Recombinant GST-Tie2): 100 to 1000 nM

Molecule: CN(c1ccc2c(c1)nc(NC(=O)Cc1ccc(F)cc1)n2C)c1ccnc(Nc2ccc(CS(C)(=O)=O)cc2)n1 [Example 206, 2-(4-Fluoro-phenyl)-N-({[2-(4-methanesulfonylmethyl-phenylamino)-pyrimidin-4-yl]-methyl-amino}-methyl-1H-benzoimidazol-2-yl)-acetamide]
- IC50 (GST-VEGFR2): < 100 nM
- IC50 (Recombinant GST-Tie2): 1000 to 10000 nM

Molecule: CN(c1ccc2c(c1)nc(NC(=O)Cc1ccc3c(c1)OCO3)n2C)c1ccnc(Nc2ccc(CS(C)(=O)=O)cc2)n1 [Example 239, Benzo[1,3]dioxol-5-yl-N-({[2-(4-methanesulfonylmethyl-phenylamino)-pyrimidin-4-yl]-methyl-amino}-methyl-1H-benzoimidazol-2-yl)-acetamide]
- IC50 (GST-VEGFR2): 100 to 1000 nM

Molecule: Cn1c(Nc2cc(C(C)(C)C)on2)nc2cc(Nc3ccnc(Nc4ccc(CS(C)(=O)=O)cc4)n3)ccc21.O=C(O)C(F)(F)F [Example 135, N^2-(5-tert-Butyl-isoxazol-3-yl)-N^5-[2-(4-methanesulfonylmethyl-phenylamino)-pyrimidin-4-yl]-1-methyl-1-1H-benzoimidazole-2,5-diamine trifluoroacetate]
- VEGF-E (GST-VEGFR2): +++ (+++ = pIC50 of >7.0)
- TIE2-FP (Recombinant GST-Tie2): + (+ = pIC50 of 5.0-6.0)

Molecule: CN(c1ccc2c(c1)nc(NC(=O)Nc1ccccc1)n2C)c1ccnc(Nc2ccc(CS(C)(=O)=O)cc2)n1 [Example 142, N-(1-methyl-5-{methyl[2-({4-[(methylsulfonyl)methyl]phenyl}amino)pyrimidin-4-yl]amino}-1H-benzimidazol-2-yl)-N′-phenylurea]
- IC50 (GST-VEGFR2): < 100 nM

Molecule: CN(c1ccc2c(c1)nc(NC(=O)C1(c3ccc(Cl)c(Cl)c3)CC1)n2C)c1ccnc(Nc2cccc(CS(C)(=O)=O)c2)n1 [Example 229, 1-(3,4-Dichloro-phenyl)-cyclopropanecarboxylic acid ({[2-(3-methanesulfonylmethyl-phenylamino)-pyrimidin-4-yl]-methyl-amino}-methyl-1H-benzoimidazol-2-yl)-amide]
- IC50 (GST-VEGFR2): 100 to 1000 nM
- IC50 (Recombinant GST-Tie2): 1000 to 10000 nM

Molecule: CN(c1ccc2c(c1)nc(NC(=O)Cc1cccs1)n2C)c1ccnc(Nc2cccc(CS(C)(=O)=O)c2)n1 [Example 169, N-({[2-(3-Methanesulfonylmethyl-phenylamino)-pyrimidin-4-yl]-methyl-amino}-methyl-1H-benzoimidazol-2-yl)-C-thiophen-2-yl-acetamide]
- IC50 (GST-VEGFR2): < 100 nM
- IC50 (Recombinant GST-Tie2): 1000 to 10000 nM

Molecule: CN(c1ccc2c(c1)nc(Nc1ccc(C(F)(F)F)cc1)n2C)c1ccnc(Nc2ccc(CS(C)(=O)=O)cc2)n1 [Example 110, N^1-Methyl-N^5-[2-(4-Methanesulfonymethyl-phenylamino)-pyrimidin-4-yl]-N^5-methyl-N^2-(4-trifluoromethyl-phenyl)-1H-benzoimidazole-2,5-diamine]
- IC50 (GST-VEGFR2): < 100 nM
- IC50 (Recombinant GST-Tie2): < 100 nM

Molecule: CN(c1ccc2c(c1)nc(NC(=O)C1CCCCC1)n2C)c1ccnc(Nc2cccc(CS(C)(=O)=O)c2)n1 [Example 157, Cyclohexanecarboxylic acid ({[2-(3-methanesulfonylmethyl-phenylamino)-pyrimidin-4-yl]-methyl-amino}-methyl-1H-benzoimidazol-2-yl)-amide]
- VEGF-E (GST-VEGFR2): +++ (+++ = pIC50 of >7.0)

Molecule: CN(c1ccc2c(c1)nc(NCc1ccc(F)cc1)n2C)c1ccnc(Nc2cccc(S(N)(=O)=O)c2)n1 [Example 11, 3-(4-{[2-(4-Fluoro-benzylamino)-1-methyl-1H-benzoimidazol-5-yl]-methyl-amino}-pyrimidin-2-ylamino)-benzenesulfonamide hydrochloride]
- IC50 (GST-VEGFR2): < 100 nM

Source: patent US7338959B2, “Diamino-pyrimidines and their use as angiogenesis inhibitors” (SmithKline Beecham Corporation, priority 2002, dated 2008)
